Like-named read-outs stand apart in the source and are kept apart here. Starred links: 1 amine or outer side, 2 acyl side, 3 side chain; linkers in the order of their positions; H or OH if unused. Positions of bridges follow the written chain, without caps; N, C: chain ends. Non-standard residues stand in square brackets, D forms with d. Residues, ends and D or L forms follow the SMILES beside them. Groups on a side chain read outwards from the residue. Chains are numbered I, II in the order given. *: point of attachment. C18 diacid = O=C(O)CCCCCCCCCCCCCCCCC(=O)*; C17 diacid = O=C(O)CCCCCCCCCCCCCCCC(=O)*; γGlu = O=C(O)[C@H](CCC(=O)[*:2])N[*:1]; NMeY = CN[C@@H](Cc1ccc(O)cc1)C(=O)O; AEEA = NCCOCCOCC(=O)O; Aib = CC(C)(N)C(=O)O
Experiments:
[1] = Human plasma protein binding (PPB); type: in vitro ADME; details: for free unbound peptide in human plasma (in words): judged for once per week (QW) dosing
Description: Stock solutions: (1000 μM) of the peptides are prepared in DMSO.
Human plasma (mixed gender; containing K2-EDTA as anti-coagulant; pre-adjusted to pH 7.4—NB alternative species may be used) is spiked individually with each test peptide (1000 nmol/L), sampled for analysis and then incubated (n=4) at 37° C. in a water bath for 30 minutes. Following the incubation period, the plasma is sampled for analysis, then transferred to ultracentrifugation tubes and centrifuged (n=3) at […] and 4° C. for 3 hours, after which the supernatant is sampled for analysis. An additional aliquot of the supernatant is taken at the end of the centrifugation period to determine the total protein concentration. An aliquot of the incubated plasma will be stored at 4° C. for 3 hours and then sampled for analysis. At the point of sampling, all samples are matrix-matched, treated with ice-cold acetonitrile/methanol (4:1 (vfv)) containing internal standard, centrifuged al 2000 g and 4° C. for 10 minutes and stored prior to LC-MS/MS analysis. An appropriate positive control compound control will be incubated and centrifuged in parallel; control plasma is also centrifuged to generate samples for matrix-matching. Fraction unbound in plasma (Fuplasma) values is determined by comparison of the analyte response in plasma to the analyte response in the supernatant, determined via peak area response ratios.
The samples are analyzed by LC-MS/MS using a 6500 (or equivalent) triple quadrupole mass spectrometer (AB Sciex) coupled to an appropriate Liquid Chromatography (LC) system. Protein binding and stability values are determined via peak area ratios using multiple reaction monitoring (MRM) parameters following compound optimisation. Multiple reaction monitoring (MRM) is a highly sensitive method of targeted mass spectrometry (MS) that can be used to selectively detect and quantify peptides based on the screening of specified precursor peptide-to-fragment ion transitions.

[2] = Dog plasma protein binding (PPB); type: in vitro ADME; details: pH 7.4; fraction unbound; dog serum; read-out: Dog PPB (FUplasma)
Excerpt: Dog PPB values presented below are obtained essentially as described for Human PPB samples, with the difference being that dog serum is used instead of human serum. Table 10 is provided with the values of (Fu,plasma) as fraction unbound expressed as a percentage compared to the percent bound. i.e. if the value is 0.0123, then the fraction unbound is […], which is 1.23% of the peptide is unbound and 98.77% is bound in plasma. Methods and analysis for performing the dog PPB protocol and results are the same as noted herein as for the Human PPB protocol and analysis.

physchem = assay: physchem
In short: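 Solubility at pH 7.4 determined by stepwise addition of 200 mM phosphate buffer in 100 μL increments to 3 mg peptide, mixing briefly each time, until no insoluble material remained, then measured by liquid chromatography.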

human GLP-1R = molecular target: T1, human GLP-1R (Homo sapiens, UniProt P43220); assay: Human GLP1R agonist activity, intracellular cAMP accumulation; type: cell-based; details: HEK-293T cells overexpressing human GLP-1R, 1 hr
T1 construct: HEK-293T cells overexpressing full-length human GLP-1R; FLAG (N); host or cells: HEK-293T
T1 sequence (P43220 24-463): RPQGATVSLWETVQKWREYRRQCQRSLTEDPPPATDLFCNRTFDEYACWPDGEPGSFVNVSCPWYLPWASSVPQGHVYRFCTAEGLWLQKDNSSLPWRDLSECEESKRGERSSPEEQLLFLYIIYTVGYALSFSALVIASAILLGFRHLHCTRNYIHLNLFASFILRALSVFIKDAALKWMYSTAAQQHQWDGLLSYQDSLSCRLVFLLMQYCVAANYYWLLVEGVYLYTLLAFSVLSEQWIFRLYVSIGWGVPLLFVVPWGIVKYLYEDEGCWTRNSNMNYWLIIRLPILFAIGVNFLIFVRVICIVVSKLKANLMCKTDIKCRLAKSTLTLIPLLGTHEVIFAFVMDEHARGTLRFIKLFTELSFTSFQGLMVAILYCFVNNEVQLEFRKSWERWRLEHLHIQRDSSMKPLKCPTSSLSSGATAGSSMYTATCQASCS
In short: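 cAMP accumulation is measured by HTRF after a 1 hr, room-temperature, dark exposure of thawed cells (4×10^5 cells/mL in Krebs Ringer buffer) to compound. Activity is scaled between DMSO alone as 0% and 1 nm GLP-1 as 100%.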

C57BL/6J mice = assay: Oral glucose tolerance test (OGTT); type: in vivo; details: 3 nmol/kg s.c., 24 hours before glucose loading
In short: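 Peptide or vehicle given s.c. at 0.1, 0.3, 3 or 10 nmol/kg (peptide-dependent), 24 h before oral 50% dextrose at 5 ml/kg unless stated otherwise. Blood glucose read at 0, 15, 30 and 60 min. % inhibition = (1−(AUC cpd−AUC naïve)/(AUC veh−AUC naïve))×100.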

[3] = both sexes, pH 7.4, fraction unbound, human plasma, 1000 nmol/L peptide, ultracentrifugation, read-out: Human PPB (FUplasma)
[4] = pH 7.4, aqueous buffer, pH 7.4 Phosphate Buffer - Solubility, 200 mM Phosphate buffer pH 7.4
[5] = pH 7.4, solubility in phosphate buffer at pH 7.4, 200 mM phosphate buffer pH 7.4
[6] = read-out: Human GLP1R cAMP EC50, HEK293T

Compound | free unbound peptide in human plasma (in words) [1] | solubility (physchem; pH 7.4, aqueous buffer) [mg/mL] | solubility (physchem; [4]) [mg/mL] | solubility (physchem; [5]) [mg/mL] | EC50 (human GLP-1R; [6]) [nM] | Oral Glucose Tolerance Test Percent decrease in blood glucose AUC (%) over 60 mins (C57BL/6J mice) | solubility (physchem; pH 7.4) [mg/mL] | further results
CC[C@H](C)[C@H](NC(=O)[C@H](CO)NC(=O)[C@H](Cc1ccc(O)cc1)NC(=O)[C@H](CC(=O)O)NC(=O)[C@H](CO)NC(=O)[C@@H](NC(=O)[C@H](Cc1ccccc1)NC(=O)[C@@H](NC(=O)CNC(=O)[C@H](CCC(=O)O)NC(=O)C(C)(C)NC(=O)[C@H](Cc1ccc(O)cc1)NC)[C@@H](C)O)[C@@H](C)CC)C(=O)N[C@@H](C)C(=O)N[C@@H](CC(C)C)C(=O)N[C@@H](CC(=O)O)C(=O)N[C@@H](CCCNC(=N)N)C(=O)NC(C)(C)C(=O)N[C@@H](C)C(=O)N[C@@H](CCC(N)=O)C(=O)NC(C)(C)C(=O)N[C@@H](CCCCNC(=O)COCCOCCNC(=O)COCCOCCNC(=O)CC[C@H](NC(=O)CC[C@H](NC(=O)CCCCCCCCCCCCCCCC(=O)O)C(=O)O)C(=O)O)C(=O)N[C@@H](Cc1ccccc1)C(=O)N[C@H](C(=O)N[C@@H](CC(N)=O)C(=O)N[C@@H](Cc1c[nH]c2ccccc12)C(=O)N[C@@H](CC(C)C)C(=O)N[C@@H](CC(C)C)C(=O)N[C@@H](C)C(=O)N[C@@H](CCC(N)=O)C(=O)N[C@@H](CCCNC(=N)N)C(N)=O)C(C)C [Compound 8] (H-[NMeY][Aib]EGTFISDYSIALDR[Aib]AQ[Aib]K([AEEA-AEEA-γGlu-γGlu-C17 diacid])FVNWLLAQR-NH2) | optimum free unbound peptide | ≥ 15 | – | – | – | – | – | fraction unbound [1, 3]: 0.0009; fraction unbound [2]: 0.0016
CC[C@H](C)[C@H](NC(=O)[C@H](CO)NC(=O)[C@H](Cc1ccc(O)cc1)NC(=O)[C@H](CC(=O)O)NC(=O)[C@H](CO)NC(=O)[C@@H](NC(=O)[C@H](Cc1ccccc1)NC(=O)[C@@H](NC(=O)CNC(=O)[C@H](CCC(=O)O)NC(=O)C(C)(C)NC(=O)[C@H](Cc1ccc(O)cc1)NC)[C@@H](C)O)[C@@H](C)CC)C(=O)N[C@@H](C)C(=O)N[C@@H](CC(C)C)C(=O)N[C@@H](CC(=O)O)C(=O)N[C@@H](CCCNC(=N)N)C(=O)NC(C)(C)C(=O)N[C@@H](CCCCNC(=O)COCCOCCNC(=O)COCCOCCNC(=O)CC[C@H](NC(=O)CC[C@H](NC(=O)CCCCCCCCCCCCCCCC(=O)O)C(=O)O)C(=O)O)C(=O)N[C@@H](CCC(N)=O)C(=O)NC(C)(C)C(=O)N[C@@H](CC(N)=O)C(=O)N[C@@H](Cc1ccccc1)C(=O)N[C@H](C(=O)N[C@@H](CC(N)=O)C(=O)N[C@@H](Cc1c[nH]c2ccccc12)C(=O)N[C@@H](CC(C)C)C(=O)N[C@@H](CC(C)C)C(=O)N[C@@H](C)C(=O)N[C@@H](CCC(N)=O)C(=O)N[C@@H](CO)C(=O)N1CCC[C@H]1C(=O)N[C@@H](CO)C(=O)N[C@@H](CO)C(=O)NCC(=O)N[C@@H](C)C(=O)N1CCC[C@H]1C(=O)N1CCC[C@H]1C(=O)N1CCC[C@H]1C(=O)N[C@@H](CO)C(N)=O)C(C)C [Compound 11] (H-[NMeY][Aib]EGTFISDYSIALDR[Aib]K([AEEA-AEEA-γGlu-γGlu-C17 diacid])Q[Aib]NFVNWLLAQSPSSGAPPPS-NH2) | optimum free unbound peptide | – | ≥ 30 | ≥ 15 | – | – | – | fraction unbound at 30 min, 1000 nmol/L [1, 3]: 0.0038; fraction unbound at 30 min, 1000 nmol/L [2]: ≤ 0.0024
CC[C@H](C)[C@H](NC(=O)[C@H](Cc1ccccc1)NC(=O)[C@@H](NC(=O)CNC(=O)[C@H](CCC(=O)O)NC(=O)C(C)(C)NC(=O)[C@@H](N)Cc1ccc(O)cc1)[C@@H](C)O)C(=O)N[C@@H](CO)C(=O)N[C@@H](CC(=O)O)C(=O)N[C@@H](Cc1ccc(O)cc1)C(=O)N[C@@H](CO)C(=O)N[C@H](C(=O)NC(C)(C)C(=O)N[C@@H](CCCCNC(=O)CNC(=O)CNC(=O)CNC(=O)CNC(=O)CNC(=O)CCCCCCCCCCCCCCCCC(=O)O)C(=O)N[C@@H](CC(=O)O)C(=O)N[C@@H](CCCNC(=N)N)C(=O)NC(C)(C)C(=O)N[C@@H](C)C(=O)N[C@@H](CCC(N)=O)C(=O)NC(C)(C)C(=O)N[C@@H](CC(=O)O)C(=O)N[C@@H](Cc1ccccc1)C(=O)N[C@H](C(=O)N[C@@H](CCC(=O)O)C(=O)N[C@@H](Cc1c[nH]c2ccccc12)C(=O)N[C@@H](CC(C)C)C(=O)N[C@@H](CC(C)C)C(=O)N[C@@H](C)C(=O)N[C@@H](CCC(N)=O)C(=O)N[C@@H](CCCNC(=N)N)C(=O)NCC(=O)O)C(C)C)[C@@H](C)CC [Compound 139] | – | ≥ 30 | – | – | 8.91 | 93% (3 nmol/kg) | ≥ 15 | –
CC[C@H](C)[C@H](NC(=O)[C@H](Cc1ccccc1)NC(=O)[C@@H](NC(=O)CNC(=O)[C@H](CCC(=O)O)NC(=O)C(C)(C)NC(=O)[C@@H](N)Cc1ccc(O)cc1)[C@@H](C)O)C(=O)N[C@@H](CO)C(=O)N[C@@H](CC(=O)O)C(=O)N[C@@H](Cc1ccc(O)cc1)C(=O)N[C@@H](CO)C(=O)N[C@H](C(=O)NC(C)(C)C(=O)N[C@@H](CCCCNC(=O)CNC(=O)CNC(=O)CNC(=O)CNC(=O)CNC(=O)CCCCCCCCCCCCCCCCC(=O)O)C(=O)N[C@@H](CC(=O)O)C(=O)N[C@@H](CCCNC(=N)N)C(=O)N[C@@H](C)C(=O)N[C@@H](C)C(=O)N[C@@H](CCC(N)=O)C(=O)NC(C)(C)C(=O)N[C@@H](CC(=O)O)C(=O)N[C@@H](Cc1ccccc1)C(=O)N[C@H](C(=O)N[C@@H](CCC(=O)O)C(=O)N[C@@H](Cc1c[nH]c2ccccc12)C(=O)N[C@@H](CC(C)C)C(=O)N[C@@H](CC(C)C)C(=O)N[C@@H](C)C(=O)N[C@@H](CCC(N)=O)C(=O)N[C@@H](CCCNC(=N)N)C(=O)NCC(=O)O)C(C)C)[C@@H](C)CC [Compound 145] | – | ≥ 30 | – | – | 9.33 | 52% (3 nmol/kg) | ≥ 15 | –
CC[C@H](C)[C@H](NC(=O)[C@H](CO)NC(=O)[C@H](Cc1ccc(O)cc1)NC(=O)[C@H](CC(=O)O)NC(=O)[C@H](CO)NC(=O)[C@@H](NC(=O)[C@H](Cc1ccccc1)NC(=O)[C@@H](NC(=O)CNC(=O)[C@H](CCC(=O)O)NC(=O)C(C)(C)NC(=O)[C@@H](N)Cc1ccc(O)cc1)[C@@H](C)O)[C@@H](C)CC)C(=O)N[C@@H](C)C(=O)N[C@@H](CCCCNC(=O)CNC(=O)CNC(=O)CNC(=O)CNC(=O)CNC(=O)CCCCCCCCCCCCCCCCC(=O)O)C(=O)N[C@@H](CC(=O)O)C(=O)N[C@@H](CCCNC(=N)N)C(=O)NC(C)(C)C(=O)N[C@@H](C)C(=O)N[C@@H](CCC(N)=O)C(=O)N[C@@H](C)C(=O)N[C@@H](CC(=O)O)C(=O)N[C@@H](Cc1ccccc1)C(=O)N[C@H](C(=O)N[C@@H](CCC(=O)O)C(=O)N[C@@H](Cc1c[nH]c2ccccc12)C(=O)N[C@@H](CC(C)C)C(=O)N[C@@H](CC(C)C)C(=O)N[C@@H](C)C(=O)N[C@@H](CCC(N)=O)C(=O)N[C@@H](CCCNC(=N)N)C(=O)NCC(=O)O)C(C)C [Compound 149] | – | ≥ 30 | – | – | 15.8 | 13% (3 nmol/kg) | ≥ 15 | –
I: H-[NMeY][Aib]EGTFISDYSIAKDR[Aib]AQ[Aib]DFVNWLLAQSPSSGAPPPS-OH / II: {C18 diacid}-PAPAPGG (amide I:14-II:C) [Compound 105] | – | – | ≥ 60 | ≥ 15 | – | 82% (3 nmol/kg) | – | EC50 (human GLP-1R; Human GLP1R cAMP EC50, HEK293T (nM)): 562 nM

— patent US20230143604A1, “QW DOSING OF GIP RECEPTOR AGONIST PEPTIDE COMPOUNDS AND USES THEREOF” (TAKEDA PHARMACEUTICAL COMPANY LIMITED, priority 2020, published 2023)
